Data from PubChem BioAssay AID342 (DTP/NCI, 2004).
Where “and” joins values, the source holds several entries; their conditions need not be identical. Equal values may be shown once.

Tested on: Swiss mice, Sarcoma 180 sc, mean tumor weight T/C
Assay: NCI In Vivo Anticancer Drug Screen. Data for tumor model Sarcoma 180 (subcutaneous) in Swiss mice
Conditions: endpoint: mean tumor weight, higher = larger tumour
Procedure, shortened: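 Antitumor activity is assessed in mice with transplantable tumors. Treated (T) and vehicle control (C) groups are compared on survival or tumor size.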

[1] = dose: 125.0 mg/kg/injection, schedule: Q01DX007 (ip), vehicle: carboxymethylcellulose (CMC)
[2] = dose: 500.0 mg/kg/injection, schedule: Q01DX007 (ip), vehicle: carboxymethylcellulose (CMC)
[3] = dose: 200.0 mg/kg/injection, schedule: Q01DX007 (ip), vehicle: saline
[4] = dose: 25.0 mg/kg/injection, schedule: Q01DX007 (ip), vehicle: saline
[5] = dose: 100.0 mg/kg/injection, schedule: Q01DX007 (ip), vehicle: saline

`COC(=O)[C@H]1[C@H]2C[C@@H]3c4[nH]c5cc(OC)ccc5c4CCN3C[C@H]2C[C@@H](OC(=O)c2cc(OC)c(OC)c(OC)c2)[C@@H]1OC` was tested, and the T/C (dose: 0.44 mg/kg/injection, schedule: Q01DX007 (ip), vehicle: carboxymethylcellulose (CMC)) was 101 % of control, the T/C (dose: 0.5 mg/kg/injection, schedule: Q01DX007 (ip), vehicle: carboxymethylcellulose (CMC)) was 91 % of control and the T/C (dose: 0.66 mg/kg/injection, schedule: Q01DX007 (ip), vehicle: carboxymethylcellulose (CMC)) was 79 % of control. The T/C (dose: 2.0 mg/kg/injection, schedule: Q01DX007 (ip), vehicle: carboxymethylcellulose (CMC)) was 35 % of control, the T/C (dose: 2.3 mg/kg/injection, schedule: Q01DX007 (ip), vehicle: carboxymethylcellulose (CMC)) was 42 % of control and the T/C (dose: 3.4 mg/kg/injection, schedule: Q01DX007 (ip), vehicle: carboxymethylcellulose (CMC)) was 18 % of control.

`O=[N+]([O-])c1ccc2c(N=Nc3c(O)ccc4ccccc34)c(O)cc(S(=O)(=O)O)c2c1` was tested, and the T/C (dose: 65.0 mg/kg/injection, schedule: Q01DX007 (ip), vehicle: saline) was 70 % of control, the T/C (dose: 95.0 mg/kg/injection, schedule: Q01DX007 (ip), vehicle: saline) was 82 % of control and the T/C (dose: 145.0 mg/kg/injection, schedule: Q01DX007 (ip), vehicle: saline) was 66 % of control. For the same compound, the T/C (dose: 330.0 mg/kg/injection, schedule: Q01DX007 (ip), vehicle: saline) was 49 % of control.

With `O=C(O)c1c(-c2ccccc2)[nH]c2cc(Cl)ccc2c1=O` the T/C (dose: 55.5 mg/kg/injection, schedule: Q01DX007 (ip), vehicle: carboxymethylcellulose (CMC)) was 87 % of control, the T/C (dose: 83.0 mg/kg/injection, schedule: Q01DX007 (ip), vehicle: carboxymethylcellulose (CMC)) was 51 % of control and the T/C [1] was 25 % of control.

For `CC(=O)OCC(=O)[C@@]1(O)CC[C@H]2[C@@H]3C[C@@H](C)C4=CC(=O)C=C[C@]4(C)[C@H]3[C@@H](O)C[C@@]21C`, the T/C (dose: 32.0 mg/kg/injection, schedule: Q01DX007 (sc), vehicle: steriod suspending solution) was 51 % of control, the T/C (dose: 49.0 mg/kg/injection, schedule: Q01DX007 (sc), vehicle: steriod suspending solution) was 56 % of control and the T/C (dose: 73.0 mg/kg/injection, schedule: Q01DX007 (sc), vehicle: steriod suspending solution) was 40 % of control and 55 % of control. The T/C (dose: 109.0 mg/kg/injection, schedule: Q01DX007 (sc), vehicle: steriod suspending solution) was 48 % of control, the T/C (dose: 111.0 mg/kg/injection, schedule: Q01DX007 (sc), vehicle: steriod suspending solution) was 31 % of control and the T/C (dose: 165.0 mg/kg/injection, schedule: Q01DX007 (sc), vehicle: steriod suspending solution) was 36 % of control and 47 % of control. For the same compound, the T/C (dose: 248.0 mg/kg/injection, schedule: Q01DX007 (sc), vehicle: steriod suspending solution) was 35 % of control, the T/C (dose: 251.0 mg/kg/injection, schedule: Q01DX007 (sc), vehicle: steriod suspending solution) was 33 % of control and the T/C (dose: 375.0 mg/kg/injection, schedule: Q01DX007 (sc), vehicle: steriod suspending solution) was 31 % of control.

`c1ccc2[nH]cnc2c1` was tested, and the T/C (dose: 31.25 mg/kg/injection, schedule: Q#A X014 (ip), vehicle: carboxymethylcellulose (CMC)) was 52 % of control, the T/C (dose: 37.12 mg/kg/injection, schedule: Q01DX007 (ip), vehicle: carboxymethylcellulose (CMC)) was 84 % of control and the T/C (dose: 46.25 mg/kg/injection, schedule: Q01DX007 (ip), vehicle: carboxymethylcellulose (CMC)) was 103 % of control. The T/C (dose: 62.5 mg/kg/injection, schedule: Q#A X014 (ip), vehicle: carboxymethylcellulose (CMC)) was 95 % of control, the T/C (dose: 74.25 mg/kg/injection, schedule: Q01DX007 (ip), vehicle: carboxymethylcellulose (CMC)) was 76 % of control and the T/C (dose: 92.5 mg/kg/injection, schedule: Q01DX007 (ip), vehicle: carboxymethylcellulose (CMC)) was 94 % of control. The T/C (dose: 125.0 mg/kg/injection, schedule: Q#A X014 (ip), vehicle: carboxymethylcellulose (CMC)) was 84 % of control, the T/C (dose: 148.5 mg/kg/injection, schedule: Q01DX007 (ip), vehicle: carboxymethylcellulose (CMC)) was 76 % of control and the T/C (dose: 185.0 mg/kg/injection, schedule: Q01DX007 (ip), vehicle: carboxymethylcellulose (CMC)) was 89 % of control. For the same compound, the T/C (dose: 250.0 mg/kg/injection, schedule: Q#A X014 (ip), vehicle: carboxymethylcellulose (CMC)) was 51 % of control and the T/C (dose: 297.0 mg/kg/injection, schedule: Q01DX007 (ip), vehicle: carboxymethylcellulose (CMC)) was 62 % of control.

`CC1NC(=O)NC1CCCCCC(=O)O` (configuration not stated) was tested, and the T/C [1] was 103 % of control, the T/C (dose: 250.0 mg/kg/injection, schedule: Q01DX007 (ip), vehicle: carboxymethylcellulose (CMC)) was 73 % of control and the T/C [2] was 122 % of control. For the same compound, the T/C (dose: 1000.0 mg/kg/injection, schedule: Q01DX007 (ip), vehicle: carboxymethylcellulose (CMC)) was 105 % of control.

In the case of `CC(=O)C(CCC(=O)O)(CCC(=O)O)c1ccccc1`, the T/C (dose: 15.0 mg/kg/injection, schedule: Q#A X014 (ip), vehicle: other) is reported as 83 % of control, the T/C (dose: 30.0 mg/kg/injection, schedule: Q#A X014 (ip), vehicle: other) is reported as 106 % of control and the T/C (dose: 60.0 mg/kg/injection, schedule: Q#A X014 (ip), vehicle: other) is reported as 98 % of control. The T/C (dose: 120.0 mg/kg/injection, schedule: Q#A X014 (ip), vehicle: other) was 112 % of control.

`Cc1ccc(N=NN(C)C)cc1` was tested, and the T/C (dose: 9.8 mg/kg/injection, schedule: Q01DX007 (ip), vehicle: carboxymethylcellulose (CMC)) was 86 % of control, the T/C (dose: 14.8 mg/kg/injection, schedule: Q01DX007 (ip), vehicle: carboxymethylcellulose (CMC)) was 70 % of control and the T/C (dose: 15.0 mg/kg/injection, schedule: Q01DX007 (ip), vehicle: carboxymethylcellulose (CMC)) was 62 % of control. The T/C (dose: 16.65 mg/kg/injection, schedule: Q#A X014 (ip), vehicle: carboxymethylcellulose (CMC)) was 45 % of control, the T/C (dose: 22.2 mg/kg/injection, schedule: Q01DX007 (ip), vehicle: carboxymethylcellulose (CMC)) was 49 % of control and the T/C (dose: 25.0 mg/kg/injection, schedule: Q#A X014 (ip), vehicle: carboxymethylcellulose (CMC)) was 43 % of control. For the same compound, the T/C (dose: 33.3 mg/kg/injection, schedule: Q01DX007 (ip), vehicle: carboxymethylcellulose (CMC)) was 60 % of control, the T/C (dose: 37.5 mg/kg/injection, schedule: Q#A X014 (ip), vehicle: carboxymethylcellulose (CMC)) was 30 % of control and the T/C (dose: 56.0 mg/kg/injection, schedule: Q#A X014 (ip), vehicle: carboxymethylcellulose (CMC)) was 14 % of control. For the same compound, the T/C (dose: 56.25 mg/kg/injection, schedule: Q#A X014 (ip), vehicle: methylcellulose (MC)) was 36 % of control and 38 % of control and the T/C (dose: 115.0 mg/kg/injection, schedule: Q01DX007 (ip), vehicle: carboxymethylcellulose (CMC)) was 34 % of control.

With `CNC(C)C(O)c1ccccc1` (configuration not stated) the T/C (dose: 133.0 mg/kg/injection, schedule: Q01DX007 (ip), vehicle: saline) was 78 % of control and the T/C [3] was 60 % of control.

`C#C[C@]1(O)CC[C@H]2[C@@H]3CCc4cc(O)ccc4[C@H]3CC[C@@]21C` was tested, and the T/C (dose: 125.0 mg/kg/injection, schedule: Q#A X014 (sc), vehicle: steriod suspending solution) was 30 % of control and 48 % of control and 50 % of control, the T/C (dose: 187.5 mg/kg/injection, schedule: Q#A X014 (sc), vehicle: steriod suspending solution) was 39 % of control and 50 % of control and 51 % of control and the T/C (dose: 281.25 mg/kg/injection, schedule: Q#A X014 (sc), vehicle: steriod suspending solution) was 62 % of control and 76 % of control.

In the case of `Oc1cc(O)c2c(c1)O[C@H](c1ccc(O)c(O)c1)[C@@H](O)C2`, the T/C (dose: 6.25 mg/kg/injection, schedule: Q01DX007 (ip), vehicle: saline) is reported as 84 % of control, the T/C (dose: 12.5 mg/kg/injection, schedule: Q01DX007 (ip), vehicle: saline) is reported as 99 % of control and the T/C [4] is reported as 88 % of control. The T/C [5] was 83 % of control, the T/C [3] was 87 % of control and the T/C (dose: 400.0 mg/kg/injection, schedule: Q01DX007 (ip), vehicle: saline) was 80 % of control.

In the case of `O=C(Nc1ccc(C2=NCCCN2)cc1)c1ccc(NC(=O)c2ccc(C3=NCCCN3)cc2)cc1`, the T/C (dose: 8.0 mg/kg/injection, schedule: Q01DX007 (ip), vehicle: carboxymethylcellulose (CMC)) is reported as 78 % of control and the T/C (dose: 16.0 mg/kg/injection, schedule: Q01DX007 (ip), vehicle: carboxymethylcellulose (CMC)) is reported as 73 % of control.

`CCCCCCCCCCCCCCCCCCNC(=S)N/N=C/c1ccc(Cl)cc1Cl` was tested, and the T/C (dose: 65.0 mg/kg/injection, schedule: Q#A X014 (ip), vehicle: methylcellulose (MC)) was 35 % of control and 53 % of control.

In the case of `C=C(C)C(=O)OCC1CO1` (configuration not stated), the T/C (dose: 250.0 mg/kg/injection, schedule: Q01DX007 (ip), vehicle: other) is reported as 97 % of control and the T/C (dose: 375.0 mg/kg/injection, schedule: Q01DX007 (ip), vehicle: other) is reported as 74 % of control.

In the case of `O=C(NNC(=O)c1cccc2ccccc12)c1cc(Br)ccc1Br`, the T/C (dose: 222.0 mg/kg/injection, schedule: Q01DX007 (ip), vehicle: carboxymethylcellulose (CMC)) is reported as 53 % of control, the T/C (dose: 333.0 mg/kg/injection, schedule: Q01DX007 (ip), vehicle: carboxymethylcellulose (CMC)) is reported as 65 % of control and the T/C [2] is reported as 26 % of control. The T/C (dose: 750.0 mg/kg/injection, schedule: Q01DX007 (ip), vehicle: carboxymethylcellulose (CMC)) was 37 % of control.

In the case of `Clc1[nH]nc2ccccc12`, the T/C (dose: 42.0 mg/kg/injection, schedule: Q#A X014 (ip), vehicle: methylcellulose (MC)) is reported as 62 % of control and 85 % of control (2×).

With `Cc1cc(N(CCCl)CCCl)ccc1C=Nc1ccccc1-c1ccccc1` the T/C [4] was 100 % of control, the T/C (dose: 50.0 mg/kg/injection, schedule: Q01DX007 (ip), vehicle: saline) was 96 % of control and the T/C [5] was 105 % of control. For the same compound, the T/C [3] was 73 % of control.
